Reference: patent US8211883B2, “Topical delivery of phthalocyanines” (priority 2004, dated 2012)

Tested on: skin lesions (early mycosis fungoides, squamous cell carcinoma)
Assay: Topical PcIV-PDT of skin lesions in patients
Assay type: in vivo, human
Experimental: PcIV solution concentrations were either 0.01 mg/mL or 0.05 mg/mL. One hour after administration of the PcIV solution, the skin lesions were exposed to a 675 nm laser, dose ranging from 50-100 J/cm^2. […] Two patients felt some heat over the treatment site during the first few minutes of laser exposure. […] Because Pc 4 is a photosensitizer, individual patient sun sensitivity was monitored by serial phototesting using solar simulated radiation. […] (see FIGS. 10a and 10b).

[1] = eleven patients, topical PcIV-PDT

CN(C)CCC[Si](C)(C)O[Si]1(O)n2c3c4ccccc4c2N=C2N=C(N=c4c5ccccc5c(n41)=NC1=NC(=N3)c3ccccc31)c1ccccc12 (centres unmarked) [Compound IV, HOSiPcOSi(CH3)2(CH2)3N(CH3)2]
clinical response of lesions (erythema and infiltration) [1]: Two patients showed a minimal decrease in erythema and infiltration of their lesions | cures [1]: No cures have been achieved to date | TUNEL positivity in lesional skin biopsies (one patient with some clinical response, 24 hours after treatment): increase in TUNEL positivity along the superficial portion of the lesion | changes in sunburn threshold or minimum erythema dose (MED) (serial phototesting with solar simulated radiation): No significant changes were observed | adverse effects (topical 0.01 or 0.05 mg/mL, 675 nm laser 50-100 J/cm^2 one hour later, up to two weeks): No significant adverse effects were observed
